Measurements published in patent publication US11459308B2 (priority 2016, dated 2022).
pIC50: −log10 of the molar value.

Columns and labels:
[1] = tested on: authentic EBOV (EBOV-Zaire 1995); assay: microbe, parasite or virus in culture; assay type: cell-based, Ebola virus; details: Zaire ebolavirus, Vero, 48 h, read-out: infectious EBOV-Z IC50
[2] = in vitro; details: African green monkey
[3] = tested on: rVSV-EBOV GP; assay: microbe, parasite or virus in culture; assay type: cell-based, Zaire Ebolavirus; details: Zaire ebolavirus, read-out: rVSV-EBOV IC50

Row | Compound | pIC50 [1] | CC50 [2] | pIC50 [3]
1 | CN1CCN(c2ccc([N+](=O)[O-])c(NC(C)(C)c3ccccc3)c2)CC1 [MBX 3741, 2-(2-phenylpropan-2-ylamino)-4-(4-methylpiperazin-1-yl)-1-nitrobenzene] | 4.99 | 85 µM | 5.51
2 | O=[N+]([O-])c1ccc(N2CCN(Cc3ccncc3)CC2)cc1NC(c1ccccc1)c1ccccc1 [MBX 3562, 1-(benzhydrylamino)-5-[4-(pyridin-4-ylmethyl)piperazin-1-yl]-2-nitrobenzene] | 5.51 | > 200 µM | 5.25
3 | CN1CCN(c2ccc(NS(C)(=O)=O)c(NC(c3ccccc3)c3ccccc3)c2)CC1 [MBX 3536A, 2-(benzhydrylamino)-4-(4-methylpiperazin-1-yl)-1-(methylsulfonamido)benzene] | 5.51 | 26 µM | 5.54
4 | CC(=O)Nc1ccc(N2CCN(C)CC2)cc1NC(c1ccccc1)c1ccccc1 [MBX 3525, 2-(benzhydrylamino)-4-(4-methylpiperazin-1-yl)-1-acetamidobenzene] | < 4.70 | 100 µM | 5.40
5 | O=[N+]([O-])c1ccc(N2CCN(Cc3cccnc3)CC2)cc1NC(c1ccccc1)c1ccccc1 [MBX 3568, 1-(benzhydrylamino)-5-[4-(pyridin-3-ylmethyl)piperazin-1-yl]-2-nitrobenzene] | 5.35 | > 200 µM | 5.35
6 | O=[N+]([O-])c1ccc(N2CCN(Cc3cccs3)CC2)cc1NC(c1ccccc1)c1ccccc1 [MBX 3576, 1-(benzhydrylamino)-5-[4-(thiophen-2-ylmethyl)piperazin-1-yl]-2-nitrobenzene] | < 4.70 | > 200 µM | 5.24
7 | CC(C)(C)N1CCN(c2ccc([N+](=O)[O-])c(NC(c3ccccc3)c3ccccc3)c2)CC1 [MBX 3625, 2-benzhydrylamino-4-(4-tert-butylpiperazin-1-yl)nitrobenzene] | 6.11 | > 100 µM | 6.07
8 | CC(C)N(CCNc1ccc([N+](=O)[O-])c(NC(c2ccccc2)c2ccccc2)c1)C(C)C [MBX 4336, N^3-benzhydryl-N^1-(2-(diisopropylamino)ethyl)-4-nitrobenzene-1,3-diamine] | 6.25 | 12 µM | 6.41
9 | Cc1ccccc1C(Nc1cc(N2CCN(C)CC2)ccc1[N+](=O)[O-])c1ccccc1 (centres unmarked) [MBX 3633, 2-[phenyl(o-tolyl)methylamino]-4-(4-methylpiperazin-1-yl)nitrobenzene] | 5.89 | 15 µM | 5.82
10 | O=[N+]([O-])c1ccc(N2CCNCC2)cc1NC(c1ccccc1)c1ccccc1 [MBX 3556, 1-(benzhydrylamino)-5-(piperazin-1-yl)-2-nitrobenzene] | 5.96 | 5.2 µM | 5.85
11 | CN1CCN(c2ccc([N+](=O)[O-])c(NC(c3ccccc3)c3cccc(Cl)c3)c2)CC1 (centres unmarked) [MBX 3643, 2-[(3-chlorophenyl)(phenyl)methylamino]-4-(4-methylpiperazin-1-yl)nitrobenzene] | < 4.70 | 21 µM | 6.07
12 | CN(C)CCCNc1ccc2ncn(C(c3ccccc3)c3ccccc3)c2c1 [MBX 4252, N^1-(1-benzhydryl-1H-benzo[d]imidazol-6-yl)-N^3,N^3-dimethylpropane-1,3-diamine] | 5.06 | 50 µM | 5.41
13 | CN1CCN(c2ccc([N+](=O)[O-])c(NC(c3ccccc3)c3cccnc3)c2)CC1 (centres unmarked) [MBX 3648, 2-[(pyridin-3-yl)(phenyl)methylamino]-4-(4-methylpiperazin-1-yl)nitrobenzene] | – | 17 µM | < 4.60
14 | CN1CCN(c2ccc3[nH]c(=O)n(C(c4ccccc4)c4ccccc4)c3c2)CC1 [MBX 3526, 1-benzhydryl-6-(4-methylpiperazin-1-yl)-1H-benzo[d]imidazol-2(3H)-one] | – | 26 µM | 5.54
15 | O=[N+]([O-])c1ccc(N2CCSCC2)cc1NC(c1ccccc1)c1ccccc1 [MBX 3699, 2-benzhydrylamino-4-thiomorpholino-1-nitrobenzene] | – | > 100 µM | < 4.60
16 | CN1CCN(c2ccc3ncn(C(C)(C)c4ccccc4)c3c2)CC1 [MBX 4213, 6-(4-methylpiperazin-1-yl)-1-(2-phenylpropan-2-yl)-1H-benzo[d]imidazole] | – | > 200 µM | 3.70
17 | Cc1ccc(C(Nc2cc(N3CCN(C)CC3)ccc2[N+](=O)[O-])c2ccccc2)cc1 (centres unmarked) [MBX 3687, 2-[(phenyl)(p-tolyl)methylamino]-4-(4-methylpiperazin-1-yl)nitrobenzene] | – | 16 µM | 5.66
18 | CN1CCN(c2ccc([N+](=O)[O-])c(NC(c3ccccc3)c3ccc(Cl)cc3)c2)CC1 (centres unmarked) [MBX 3644, 2-[(4-chlorophenyl)(phenyl)methylamino]-4-(4-methylpiperazin-1-yl)nitrobenzene] | – | 18 µM | 5.85
19 | CN(C)C1CCN(c2ccc([N+](=O)[O-])c(NC(c3ccccc3)c3ccccc3)c2)CC1 [MBX 3749, 2-(benzhydrylamino)-4-[4-(dimethylamino)piperidin-1-yl]-1-nitrobenzene] | – | 7.7 µM | 6.15
20 | O=[N+]([O-])c1ccc(-c2ccncc2)cc1NC(c1ccccc1)c1ccccc1 [MBX 4277, N-benzhydryl-2-nitro-5-(pyridin-4-yl)aniline] | – | 40 µM | 4.84
21 | CCOC(=O)CN1CCN(c2ccc([N+](=O)[O-])c(NC(c3ccccc3)c3ccccc3)c2)CC1 [MBX 3947, 2-(benzhydrylamino)-4-[4-(2-ethoxy-2-oxoethyl)piperazin-1-yl]-1-nitrobenzene] | – | > 100 µM | 4.74
22 | COc1cccc(C(Nc2cc(N3CCN(C)CC3)ccc2[N+](=O)[O-])c2ccccc2)c1 (centres unmarked) [MBX 3641, 2-[(3-methoxyphenyl)(phenyl)methylamino]-4-(4-methylpiperazin-1-yl)nitrobenzene] | – | 26 µM | < 4.60
23 | O=[N+]([O-])c1ccc(N2CCC(N3CCCCC3)CC2)cc1NC(c1ccccc1)c1ccccc1 [MBX 3747, 2-(benzhydrylamino)-4-[(1,4′-bipiperidin)-1′-yl]-1-nitrobenzene] | – | 7.5 µM | 6.24
24 | O=[N+]([O-])c1ccc(N2CCN(CCc3ccccc3)CC2)cc1NC(c1ccccc1)c1ccccc1 [MBX 3623, 2-benzhydrylamino-4-(4-phenethylpiperazin-1-yl)nitrobenzene] | – | > 100 µM | < 4.60
25 | c1ccc(C(c2ccccc2)n2cnc3cnc(N4CCNCC4)cc32)cc1 [MBX 4215A, 1-benzhydryl-6-(piperazin-1-yl)-1H-imidazo[4,5-c]pyridine bis(2,2,2-trifluoroacetate)] | – | 94 µM | 5.55
26 | c1ccc(C(c2ccccc2)n2cnc3ccc(N4CCN5CCCCC5C4)cc32)cc1 (centres unmarked) [MBX 4211, 2-(1-benzhydryl-1H-benzo[d]imidazol-6-yl)octahydro-1H-pyrido[1,2-a]pyrazine] | – | 195 µM | 5.70
27 | CN1CCN(c2ccc([N+](=O)[O-])c(NC(c3ccccc3)c3ccccc3)c2)CC1=O [MBX 3695, 2-benzhydrylamino-4-(4-methyl-3-oxopiperazin-1-yl)nitrobenzene] | – | > 100 µM | 4.80
28 | c1ccc(C(c2ccccc2)n2cnc3ccc(-c4ccncc4)cc32)cc1 [MBX 4278, 1-benzhydryl-6-(pyridin-4-yl)-1H-benzo[d]imidazole] | – | 4.2 µM | 5.05
